Data: PubChem BioAssay (NCI)
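These data come from cells grown in 96-well plates and exposed to compound for 48 hours at five concentrations. TGI: total growth inhibition.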

Tests used:
Test in all cases: inhibition of tumour cell growth, NCI panel, 48 h
786-0 renal = system: 786-0 renal
A498 renal = system: A498 renal
A549 NSCLC = system: A549 NSCLC
ACHN renal = system: ACHN renal
CAKI-1 renal = system: CAKI-1 renal
CCRF-CEM leukemia = system: CCRF-CEM leukemia
COLO 205 colon = system: COLO 205 colon
DU-145 prostate = system: DU-145 prostate
EKVX NSCLC = system: EKVX NSCLC
HCC-2998 colon = system: HCC-2998 colon
HCT-116 colon = system: HCT-116 colon
HCT-15 colon = system: HCT-15 colon
HL-60(TB) leukemia = system: HL-60(TB) leukemia
HOP-62 NSCLC = system: HOP-62 NSCLC
HOP-92 NSCLC = system: HOP-92 NSCLC
HS 578T breast = system: HS 578T breast
HT29 colon = system: HT29 colon
IGROV1 ovarian = system: IGROV1 ovarian
K-562 leukemia = system: K-562 leukemia
KM12 colon = system: KM12 colon
LOX IMVI melanoma = system: LOX IMVI melanoma
M14 melanoma = system: M14 melanoma
MALME-3M melanoma = system: MALME-3M melanoma
MCF7 breast = system: MCF7 breast
MDA-MB-231 breast = system: MDA-MB-231 breast
MDA-MB-435 = system: MDA-MB-435
MDA-N = system: MDA-N
MOLT-4 leukemia = system: MOLT-4 leukemia
NCI-H226 lung = system: NCI-H226 lung
NCI-H23 lung = system: NCI-H23 lung
NCI-H460 lung = system: NCI-H460 lung
NCI-H522 lung = system: NCI-H522 lung
NCI/ADR-RES ovarian = system: NCI/ADR-RES ovarian
OVCAR-3 ovarian = system: OVCAR-3 ovarian
OVCAR-4 ovarian = system: OVCAR-4 ovarian
OVCAR-8 ovarian = system: OVCAR-8 ovarian
PC-3 prostate = system: PC-3 prostate
RPMI-8226 leukemia = system: RPMI-8226 leukemia
RXF 393 renal = system: RXF 393 renal
SF-268 CNS = system: SF-268 CNS
SF-295 CNS = system: SF-295 CNS
SF-539 CNS = system: SF-539 CNS
SK-MEL-2 melanoma = system: SK-MEL-2 melanoma
SK-MEL-28 melanoma = system: SK-MEL-28 melanoma
SK-MEL-5 melanoma = system: SK-MEL-5 melanoma
SK-OV-3 ovarian = system: SK-OV-3 ovarian
SN12C renal = system: SN12C renal
SNB-19 CNS = system: SNB-19 CNS
SNB-75 CNS = system: SNB-75 CNS
SR leukemia = system: SR leukemia
SW-620 colon = system: SW-620 colon
T-47D breast = system: T-47D breast
TK-10 renal = system: TK-10 renal
U251 CNS = system: U251 CNS
UACC-257 melanoma = system: UACC-257 melanoma
UACC-62 melanoma = system: UACC-62 melanoma
UO-31 renal = system: UO-31 renal

Measured: TGI

O=C1NC(=O)C23C(=O)NC(=O)C12C1C=CC3CC1 (configuration not stated)
> 10 µM: 786-0 renal | A498 renal | A549 NSCLC | ACHN renal | CAKI-1 renal | CCRF-CEM leukemia | COLO 205 colon | DU-145 prostate | EKVX NSCLC | HCC-2998 colon | HCT-116 colon | HCT-15 colon | HL-60(TB) leukemia | HOP-62 NSCLC | HOP-92 NSCLC | HS 578T breast | HT29 colon | IGROV1 ovarian | K-562 leukemia | KM12 colon | LOX IMVI melanoma | M14 melanoma | MALME-3M melanoma | MCF7 breast | MDA-MB-231 breast | MDA-MB-435 | MDA-N | MOLT-4 leukemia | NCI-H226 lung | NCI-H23 lung | NCI-H460 lung | NCI-H522 lung | NCI/ADR-RES ovarian | OVCAR-3 ovarian | OVCAR-4 ovarian | OVCAR-8 ovarian | PC-3 prostate | RPMI-8226 leukemia | RXF 393 renal | SF-268 CNS | SF-295 CNS | SF-539 CNS | SK-MEL-2 melanoma | SK-MEL-28 melanoma | SK-MEL-5 melanoma | SK-OV-3 ovarian | SN12C renal | SNB-19 CNS | SNB-75 CNS | SR leukemia | SW-620 colon | T-47D breast | TK-10 renal | U251 CNS | UACC-257 melanoma | UACC-62 melanoma | UO-31 renal
